Results: ChEMBL document CHEMBL3792312, “Synthesis and docking studies of pyrazine-thiazolidinone hybrid scaffold targeting dormant tuberculosis” (Bioorg Med Chem Lett, 2016)
≈ marks a conversion by molar mass, not a printed value.

Experiments:
Pseudomonas fluorescens [1] = experiment: Antibacterial activity against Pseudomonas fluorescens at 10 ug after 8 hrs; type: functional
Staphylococcus aureus [2] = experiment: Antibacterial activity against Staphylococcus aureus at 3 ug after 12 hrs; type: functional
Bacillus subtilis [3] = experiment: Antibacterial activity against Bacillus subtilis at 30 ug after 12 hrs; type: functional
[4] = test system: Mycolicibacterium smegmatis; experiment: Antitubercular activity against dormant Mycobacterium smegmatis MC2 155 at 10 ug after 12 days by XTT-Menadione assay; type: functional, str. MC2 155
Escherichia coli [5] = experiment: Antibacterial activity against Escherichia coli at 10 ug after 8 hrs; type: functional
Escherichia coli [6] = experiment: Antibacterial activity against Escherichia coli at 30 ug after 8 hrs; type: functional
Pseudomonas fluorescens [7] = experiment: Antibacterial activity against Pseudomonas fluorescens at 3 ug after 8 hrs; type: functional
Staphylococcus aureus [8] = experiment: Antibacterial activity against Staphylococcus aureus at 30 ug after 12 hrs; type: functional
[9] = test system: Mycobacterium tuberculosis; experiment: Antitubercular activity against dormant Mycobacterium tuberculosis H37Ra at 10 ug after 12 days by XTT-Menadione assay; type: functional
[10] = test system: Mycobacterium tuberculosis; experiment: Antitubercular activity against dormant Mycobacterium tuberculosis H37Ra at 3 ug after 12 days by XTT-Menadione assay; type: functional
Pseudomonas fluorescens [11] = experiment: Antibacterial activity against Pseudomonas fluorescens at 30 ug after 8 hrs; type: functional
[12] = test system: Mycolicibacterium smegmatis; experiment: Antitubercular activity against dormant Mycobacterium smegmatis MC2 155 at 3 ug after 12 days by XTT-Menadione assay; type: functional, str. MC2 155
[13] = test system: Mycobacterium tuberculosis; experiment: Antitubercular activity against dormant Mycobacterium tuberculosis H37Ra at 30 ug after 12 days by XTT-Menadione assay; type: functional
Bacillus subtilis [14] = experiment: Antibacterial activity against Bacillus subtilis at 10 ug after 12 hrs; type: functional
Escherichia coli [15] = experiment: Antibacterial activity against Escherichia coli at 3 ug after 8 hrs; type: functional
Staphylococcus aureus [16] = experiment: Antibacterial activity against Staphylococcus aureus at 10 ug after 12 hrs; type: functional
[17] = test system: Mycolicibacterium smegmatis; experiment: Antitubercular activity against dormant Mycobacterium smegmatis MC2 155 at 30 ug after 12 days by XTT-Menadione assay; type: functional, str. MC2 155
Bacillus subtilis [18] = experiment: Antibacterial activity against Bacillus subtilis at 3 ug after 12 hrs; type: functional
[19] = test system: Mycobacterium tuberculosis; experiment: Antitubercular activity against dormant Mycobacterium tuberculosis H37Ra after 12 days by XTT-Menadione assay; type: functional, organism-based; settings: 288 h

SMILES | inhibition (INH) (Pseudomonas fluorescens [1]) [%] | inhibition (INH) (Staphylococcus aureus [2]) [%] | inhibition (INH) (Bacillus subtilis [3]) [%] | inhibition (INH) [4] [%] | inhibition (INH) (Escherichia coli [5]) [%] | inhibition (INH) (Escherichia coli [6]) [%] | inhibition (INH) (Pseudomonas fluorescens [7]) [%] | inhibition (INH) (Staphylococcus aureus [8]) [%] | inhibition (INH) [9] [%] | inhibition (INH) [10] [%] | inhibition (INH) (Pseudomonas fluorescens [11]) [%] | inhibition (INH) [12] [%] | inhibition (INH) [13] [%] | inhibition (INH) (Bacillus subtilis [14]) [%] | inhibition (INH) (Escherichia coli [15]) [%] | inhibition (INH) (Staphylococcus aureus [16]) [%] | inhibition (INH) [17] [%] | inhibition (INH) (Bacillus subtilis [18]) [%] | MIC [19] [ng/mL]
Cc1cnc(C(=O)NN2C(=O)CSC2c2ccccc2)cn1 (stereo not given) | 33.57 | -39.23 | -9.36 | 24.96 | 56.76 | 42.85 | 19.67 | 39.81 | 66.69 | 55.04 | 35.1 | 34.46 | 68.38 | 16.03 | 60.45 | 41.07 | 61.3106 | 17.71 | –
Cc1cnc(C(=O)NN2C(=O)CSC2c2ccc(Cl)cc2)cn1 (stereo not given) | 21.51 | -0.64 | -36.6 | 24.29 | 64.64 | 40.4 | 27.78 | 16.66 | 61.88 | 60.85 | 32.81 | -84.5144 | 62.27 | -5.89 | 63.05 | -10.67 | -19.6759 | -0.29 | –
CO[C@H]1/C=C/O[C@@]2(C)Oc3c(C)c(O)c4c(O)c(c(/C=N/N5CCN(C)CC5)c(O)c4c3C2=O)NC(=O)/C(C)=C\C=C\[C@H](C)[C@H](O)[C@@H](C)[C@@H](O)[C@@H](C)[C@H](OC(C)=O)[C@@H]1C [RIFAMPIN] | – | – | – | – | – | – | – | – | – | – | – | – | – | – | – | – | – | – | 2.1 (≈ 2.55 nM)
Nc1nccnc1C(=O)NN1C(=O)CSC1c1ccc(Cl)cc1 (stereo not given) | 13.99 | 52.81 | 2.22 | 64.17 | -65.92 | 38.45 | 21.22 | -34.8 | 70.78 | 62.36 | -17.98 | 30.65 | 72.85 | -4.06 | -8.913 | 14.12 | 52.67 | -14.42 | –
Cc1cnc(C(=O)NN2C(=O)CSC2c2ccc(O)cc2)cn1 (stereo not given) | 29.13 | -7.09 | 16.21 | 15.78 | -32.72 | 32.37 | 29.07 | -4.04 | 70.55 | 64.79 | -20.73 | 30.34 | 75.49 | 19.81 | -51.23 | 6.02 | 7.295 | -6.172 | –
C[C@H]1COC2(CCN(c3nc(=O)c4cc(C(F)(F)F)cc([N+](=O)[O-])c4s3)CC2)O1 [BTZ-043] | – | – | – | – | – | – | – | – | – | – | – | – | – | – | – | – | – | – | 3 (≈ 6.95 nM)
Nc1nccnc1C(=O)NN1C(=O)CSC1c1ccc(O)cc1 (stereo not given) | 16.61 | 25.87 | 4.31 | 27.68 | 14.06 | 15.24 | 30.55 | 43.79 | 69.84 | 65.54 | 43.72 | 36.11 | 70.73 | 16.8 | 56.462 | 40.89 | 13.22 | 13.88 | –
NC(=O)c1cnccn1 [PYRAZINAMIDE] | – | – | – | – | – | – | – | – | – | – | – | – | – | – | – | – | – | – | > 10000
Nc1nccnc1C(=O)NN1C(=O)CSC1c1ccc(F)cc1 (stereo not given) | 40.76 | -14.5 | 3.63 | -3.707 | 45 | 50.12 | 27.83 | 8.99 | 67.84 | 68.04 | 42.8 | 28.7381 | 71.96 | 21.54 | 41.47 | -50.49 | 37.72 | 14.29 | –
CN(C)c1ccc(C2SCC(=O)N2NC(=O)c2nccnc2N)cc1 (stereo not given) | 22.64 | 31.97 | 0.43 | 38.8231 | 62.03 | 40.76 | 35.05 | 56.34 | 66.92 | 63.27 | 34.38 | 34.15 | 69.04 | 9.92 | 49.71 | 9.5 | -93.9118 | 3.21 | –
COc1ccc(C2SCC(=O)N2NC(=O)c2cnc(C)cn2)cc1OC (stereo not given) | 28.51 | 48.7 | 14.25 | 46.67 | -59.8 | -11.14 | -2.69 | 2.4 | 72.12 | 68.91 | -5.41 | 8.925 | 73.51 | 18.53 | -46.22 | -14.6 | 9.358 | 13.25 | –
COc1ccc(C2SCC(=O)N2NC(=O)c2cnc(C)cn2)cc1 (stereo not given) | 19.06 | -9.85 | 18.72 | 11.4077 | -9.96 | 17.95 | -0.838 | -29.6 | 65.76 | 63.11 | 29.02 | 46.39 | 71.41 | -8.08 | 9.978 | -29.27 | 27.97 | 19.31 | –
Nc1nccnc1C(=O)NN1C(=O)CSC1c1cccc([N+](=O)[O-])c1 (stereo not given) | 25.83 | 5.486 | 17.93 | -86.9278 | 5.212 | 34.42 | 4.173 | -37.97 | 62.55 | 63.89 | 47.95 | 36.91 | 64.96 | -12.6 | -91.9 | -44.93 | 50.45 | -23.1 | –
Nc1nccnc1C(=O)NN1C(=O)CS[C@H]1c1ccc([N+](=O)[O-])cc1 | 24.31 | 16.74 | -19.53 | -28.273 | 57.79 | 37.49 | 37.2 | -21.02 | 43 | 39.54 | -20.68 | 34.28 | 49.69 | -1.56 | 42.143 | -46.62 | -10.9967 | 0.25 | –
NNC(=O)c1ccncc1 [ISONIAZID] | – | – | – | – | – | – | – | – | – | – | – | – | – | – | – | – | – | – | 75 (≈ 547 nM)
O=C(NN1C(=O)CSC1c1ccc(O)cc1)c1cnccn1 (stereo not given) | 5.678 | 24.23 | 1.8 | 31.9215 | 49.76 | 39.38 | 9.87 | 30.2 | 45.24 | 40.52 | 27.67 | 28.83 | 53.37 | -7.31 | 41.07 | 16.31 | 45.5719 | -5.94 | –
